In data set [1] the target is T1, Glutamate NMDA receptor (Rattus norvegicus) (UniProt P35439+Q00959+Q00960+Q00961+Q62645+Q8VHN2+Q9R1M7). The data set can be described thus: Inhibition of NMDA receptor glycine site in rat brain homogenate at 10 uM. Type of data set: tissue-based.
For data set [2], the target named is Glutamate receptor 2 (Homo sapiens) (UniProt P42262). The data set can be described thus: Binding affinity to human GluA2 by X-ray crystallography.
Data set [3] has as its system Mus musculus. Kind of data set: Anticonvulsant activity in po dosed DBA2 mouse assessed as inhibition of sound-induced seizures. Type of data set: functional, organism-based.
A short description of data set [4]: Displacement of [3H]CNQX from AMPA receptor in rat brain homogenate. Type of data set: tissue-based. (In a radioligand displacement assay an active substance lowers the binding of a labelled ligand.)
Data set [5] deals with Mus musculus. Kind of data set: Anticonvulsant activity in OF1 mouse assessed as inhibition of electroshock-induced seizures at 30 mg/kg, ip administered 1 hr before electroshock challenge. Type of data set: functional. The following applies: route intraperitoneal.
Data set [6] relates to Mus musculus. Kind of data set: Anticonvulsant activity in po dosed OF1 mouse assessed as inhibition of electroshock-induced seizures administered 1 hr before electroshock challenge. Type of data set: functional.
The test system of data set [7] is Mus musculus. Kind of data set: Anticonvulsant activity in OF1 mouse assessed as inhibition of electroshock-induced seizures at 30 mg/kg, po administered 1 hr before electroshock challenge. Type of data set: functional.
The target in data set [8] is T1, Glutamate NMDA receptor (Rattus norvegicus). The data set can be described thus: Inhibition of NMDA receptor glycine site in rat brain homogenate at 100 uM. Type of data set: tissue-based.
Data set [9] is filed under the species Rattus norvegicus. Kind of data set: Inhibition of AMPA receptor in rat brain homogenate at 100 uM. Type of data set: tissue-based.
A further data set deals with Glutamate NMDA receptor. Kind of data set: Displacement of [3H]MDL105519 from NMDA receptor glycine site in rat brain homogenate. Type of data set: tissue-based.
For data set [10], the species on record is Rattus norvegicus. The data set can be described thus: Inhibition of AMPA receptor in rat brain homogenate at 10 uM. Type of data set: tissue-based.
Data set [11] in a line: Dissociation constant, pKa of the compound. Type of data set: physicochemical.

Calls of active or inactive are those of the source. No cut-off for these calls is given here. Where only a bound is given, the exact number is not on record here.

Sequence of Glutamate receptor 2 (Homo sapiens) (P42262 whole entry): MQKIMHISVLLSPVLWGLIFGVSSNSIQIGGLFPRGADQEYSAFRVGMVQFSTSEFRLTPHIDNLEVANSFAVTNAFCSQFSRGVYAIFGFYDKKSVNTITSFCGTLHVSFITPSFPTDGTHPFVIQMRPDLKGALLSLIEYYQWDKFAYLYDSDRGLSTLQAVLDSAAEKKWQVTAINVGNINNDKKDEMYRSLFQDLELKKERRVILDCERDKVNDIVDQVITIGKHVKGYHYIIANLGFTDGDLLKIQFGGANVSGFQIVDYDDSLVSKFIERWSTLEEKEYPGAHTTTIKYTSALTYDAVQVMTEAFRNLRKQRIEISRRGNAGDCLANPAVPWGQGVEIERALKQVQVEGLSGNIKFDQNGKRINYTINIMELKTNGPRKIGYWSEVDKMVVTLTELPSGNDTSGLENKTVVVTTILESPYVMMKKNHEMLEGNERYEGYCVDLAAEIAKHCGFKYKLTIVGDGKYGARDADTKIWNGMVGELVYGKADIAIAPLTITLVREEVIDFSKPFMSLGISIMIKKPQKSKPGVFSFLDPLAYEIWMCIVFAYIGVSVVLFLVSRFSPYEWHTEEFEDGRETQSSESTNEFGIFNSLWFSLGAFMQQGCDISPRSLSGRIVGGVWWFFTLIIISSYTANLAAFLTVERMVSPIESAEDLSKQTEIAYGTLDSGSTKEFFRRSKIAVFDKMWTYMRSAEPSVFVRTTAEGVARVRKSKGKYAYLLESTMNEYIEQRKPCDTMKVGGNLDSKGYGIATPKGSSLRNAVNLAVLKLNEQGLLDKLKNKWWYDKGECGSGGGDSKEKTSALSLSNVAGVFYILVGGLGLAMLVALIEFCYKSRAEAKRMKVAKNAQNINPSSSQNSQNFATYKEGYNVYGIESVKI

The inhibition is how much of the control response was suppressed. As a reminder, the IC50 is the concentration at which inhibition is half-maximal. Read a low IC50 as greater potency. The inhibition in vivo is the drop in the measured response relative to a control, in per cent. `CS(=O)(=O)Nn1c(=O)[nH]c2cc([N+](=O)[O-])c(-n3ccnc3)cc2c1=O` registered an inhibition in data set [1] of 24%. For the same compound, in [2], the result was Active. Further, the inhibition result in the data set with Mus musculus [3] and with Mus musculus [6] was “inactive” throughout. In addition, the IC50 in data set [4] was 0.082 µM. Moreover, the inhibition in vivo at 30 mg/kg with Mus musculus [5] was 40%.

By ED50 is commonly meant the midpoint of the dose-response relation. Turning to `Cc1ccc2c(=O)n(NS(C)(=O)=O)c(=O)[nH]c2c1`, the inhibition in data set [1] turned out to be 13%. The same compound showed an IC50 in data set [4] of 9.7 µM. Also, the ED50 in the data set on Mus musculus [6] is 9 mg/kg.

Consider `CS(=O)(=O)Nn1c(=O)[nH]c2cc(Br)ccc2c1=O`, for which the inhibition in data set [1] was determined as 49%. The compound also gave a concentration for half-maximal inhibition (IC50) in data set [4] of 2.2 µM.

For `COc1ccc2c(=O)n(NS(C)(=O)=O)c(=O)[nH]c2c1`, in data set [1], the inhibition was 22%. For the same compound, in the data set with Mus musculus [7], the inhibition in vivo at 30 mg/kg was determined as 60%. In data set [4], this compound registered an IC50 of 3.7 µM.

As for `Cn1c(=O)n(NS(C)(=O)=O)c(=O)c2ccc(Cl)cc21`, the values for the inhibition (in data set [8]; in the data set filed under Rattus norvegicus [9]) were 36% and 45%, respectively.

As for `CN(n1c(=O)[nH]c2cc(Cl)ccc2c1=O)S(C)(=O)=O`, the figures for the inhibition (in data set [8]; in the data set filed under Rattus norvegicus [9]) were 18% and 12%, respectively.

With `CS(=O)(=O)Nn1c(=O)[nH]c2cc(C#N)ccc2c1=O`, the inhibition in data set [1] came to 28%. In [4], the IC50 is 0.75 µM.

For `CS(=O)(=O)Nn1c(=O)[nH]c2cc(S(C)(=O)=O)ccc2c1=O`, the IC50 on Glutamate NMDA receptor is greater than 100 µM. This compound also came in with an inhibition in the data set filed under Rattus norvegicus [10] of 42%.

As for `CS(=O)(=O)Nn1c(=O)[nH]c2ccccc2c1=O`, the IC50 in data set [4] worked out at 57 µM. The compound also registered an inhibition in data set [8] of 48%.

For the compound `C=Cc1ccc2c(=O)n(NS(C)(=O)=O)c(=O)[nH]c2c1`, the figures for the IC50 (in data set [4]; at Glutamate NMDA receptor) were 1.9 µM and greater than 10 µM, respectively.

Consider `O=c1[nH]c2cc(Cl)ccc2c(=O)n1NS(=O)(=O)Cc1ccccc1`, for which the IC50 was 2.9 µM in data set [4] and 0.21 µM on Glutamate NMDA receptor.

Turning to `CC(C)(C)c1ccc2c(=O)n(NS(C)(=O)=O)c(=O)[nH]c2c1`, the IC50 is 4.9 µM in data set [4] and greater than 100 µM at Glutamate NMDA receptor. For the same compound, in the data set on Mus musculus [6], the ED50 is 29.5 mg/kg.

In the case of `CCc1ccc2c(=O)n(NS(C)(=O)=O)c(=O)[nH]c2c1`, in data set [4], the IC50 worked out at 3 µM. The ED50 with Mus musculus [6] was 16 mg/kg.

In data set [4], `CS(=O)(=O)Nn1c(=O)[nH]c2cccc(Cl)c2c1=O` had an IC50 of 29 µM. The compound also displayed an inhibition in [8] of 34%.

The compound `CS(=O)(=O)Nn1c(=O)[nH]c2cc([N+](=O)[O-])ccc2c1=O` registered an inhibition in data set [1] of 16%. Also, in [4], the IC50 was 1.2 µM.

On to `CS(=O)(=O)Nn1c(=O)[nH]c2cc(C(F)(F)F)ccc2c1=O`, for which, in [1], the inhibition came to 13%. Also, the 50% inhibitory concentration (IC50) is 0.92 µM in [4] and 17.8 µM on Glutamate NMDA receptor. In addition, the ED50 in the data set with Mus musculus [6] came out at 54 mg/kg.

Regarding `CS(=O)(=O)Nn1c(=O)[nH]c2cc(CCc3ccccc3)ccc2c1=O`, the inhibition in data set [1] turned out to be 26%. The same compound came in with an IC50 in data set [4] of 1.1 µM.

In turn, `CS(=O)(=O)Nn1c(=O)[nH]c2c(Cl)cccc2c1=O` showed an IC50 in data set [4] greater than 100 µM. Besides, the inhibition in data set [8] turned out to be 37%.

Consider `CCS(=O)(=O)Nn1c(=O)[nH]c2cc(Cl)ccc2c1=O`, for which the figures for the IC50 (in data set [4]; at Glutamate NMDA receptor) were 2.3 µM and 35 µM, respectively.

For the compound `CS(=O)(=O)Nn1c(=O)[nH]c2cc(-c3ccccc3)ccc2c1=O`, the inhibition (in data set [8]; in the data set listed under Rattus norvegicus [10]) was 36% each time.

Take `Cn1cnc(S(=O)(=O)Nn2c(=O)[nH]c3cc(Cl)ccc3c2=O)c1`: in data set [4], the IC50 amounted to 1.6 µM. That is a single-digit micromolar value.

On to `CS(=O)(=O)Nn1c(=O)[nH]c2cc(C3CCCC3)ccc2c1=O`, for which the inhibition in the data set filed under Rattus norvegicus [10] turned out to be 25%.

As a reminder, the pKa is the pH at which an ionisable group is half protonated. `CS(=O)(=O)Nn1c(=O)[nH]c2cc(Cl)ccc2c1=O`: the inhibition in data set [1] was found to be 32%. The IC50 in [4] is 2.4 µM. Besides, the ED50 in the data set on Mus musculus [6] is 23 mg/kg. This compound also displayed a pKa in [11] of 6.9.

The compound `CS(=O)(=O)Nn1c(=O)[nH]c2cc(F)ccc2c1=O` came in with an inhibition in data set [1] of 17%. Also, the IC50 in data set [4] was found to be 8.2 µM.

For the compound `O=c1[nH]c2cc(Cl)ccc2c(=O)n1NS(=O)(=O)c1ccccc1`, the IC50 was found to be 4.9 µM in [4] and 9.3 µM on Glutamate NMDA receptor.

For `CS(=O)(=O)Nn1c(=O)[nH]c2cc(Cl)c(-n3ccnc3)cc2c1=O`, the IC50 in data set [4] came to 0.52 µM; at Glutamate NMDA receptor, 17.2 µM.

Take `CS(=O)(=O)Nn1c(=O)[nH]c2ccc(Cl)cc2c1=O`: the IC50 in [4] is 34 µM. Besides, the inhibition in data set [8] was found to be 50%.

In the case of `CS(=O)(=O)Nn1c(=O)[nH]c2cc(C(=O)O)ccc2c1=O`, the inhibition in the data set listed under Rattus norvegicus [10] was 0%.

The values above are taken from ChEMBL document CHEMBL1777694, “Quinazolinedione sulfonamides: a novel class of competitive AMPA receptor antagonists with oral activity” (Bioorg Med Chem Lett, 2011).
